Assay results taken from patent publication US20160220464A1 (WUHAN OPTICS VALLEY BRIDGEBIOMED INTERNATIONAL CORPORATION, priority 2013, published 2016).

Columns and labels:
[1] = tested on: human aortic smooth muscle cells (HASMC); assay: PG subtype secretion by EIA in HASMC; assay type: cell-based; conditions: 10 nM, 1 μM BK set as 100%
[2] = Transdermal experiment, modified Franz diffusion pool with HPLC; assay type: in vitro ADME, mice
Experimental: To explore the optimized dosage form and preparation technology of BK B2 receptor agonist, we selected YLB-01, which has the long-term stability for preservation, as a sample from three agonists (YLB-01, YLB-02, YLB-03) and prepared three kinds of dosage form, analyzed by transdermal experiments and high-performance liquid phase (HPLC) content analysis. Three dosage forms (liniments, gels and ointments) of […] were prepared in different concentrations (0.03%, 0.3% and 3%). Then, different proportional of transdermal promoters was added to perform transdermal experiments. The transdermal effects of three kinds of YLB-01 formulation were evaluated by the modified Franz diffusion pool. Cumulative transmittance of liniments, gels and ointments in 0.3% concentration of YLB-01 for 9 hours was measured respectively. Results: (1) The best transdermal promoter ratio of liniments, gels and ointments were 2% propylene glycol+2% azone, 4% propylene glycol, and 5% propylene glycol+2% azone. (2) 9 hours of cumulative transmittance of 0.03%, 0.3%, 3% liniments were 4.23%, 10.96% and 12.17%, respectively; 9 hours of cumulative transmittance of 0.03%, 0.3%, 3% gels were 2.29%, 4.43% and 13.57%, respectively; 9 hours of cumulative transmittance of 0.03%, 0.3%, 3% ointments were 2.08%, 1.12% and 0.73%, respectively. Conclusion: The different contents of […] liniments, gels and ointments are all have some transdermal abilities, and the abilities are: liniments>gels>ointments.
To determine the optimal dosage form of YLB-01 and best transdermal promoter, we plan to use transdermal test combined with HPLC content analysis as screening basis, research on dosage forms and transdermal promoter to achieve a stable and reliable preparation. The samples were analyzed by HPLC on an Agilent TC-C18 column (150 mm×4.6 mm, 5 microns). The mobile phases were methanol and 0.02 mol/L potassium dihydrogen phosphate buffer (66:34, pH was adjusted to 4 with phosphoric acid). Flow rate: 1 ml/min; Column temperature: 30° C. Excitation wavelength and fluorescent wavelength of fluorescence detection were 267 nm and 380 nm, respectively. Under this condition, YLB-01 retention time was 3.898 min, target compounds peak shape is good which could be effectively separated, and no impurity peak, baseline is smooth (shown as FIG. 6).
The abdominal hair of mice was removed. The mice were sacrificed by spinal dislocation. The subcutaneous fat was removed, and the depilous skin of abdomen was reserved in 4° C. physiological saline. Skin was fixed between the supply room and reception room facing the supply room. The effective permeability area was 4 cm^2. Receiving liquid was physiological saline, and receiving chamber volume V were 25 ml. 1.0 g of the tested sample was coated evenly on the effective skin surface with the electromagnetic stirrer run at a speed of 300 r/min. To take out the receiving liquid in 1, 2, 3, 4, 5, 6, 7, 8, 9 h, 0.5 ml/h (Complementing the same quantity each time), the samples were centrifuged and the supernatant was took for HPLC analysis.
After the detection, the cumulative transmittance P (%) was calculated:
V: the volume of receiving liquid in receiving room; Ci: drug concentration in receiving liquid between the time to last time of the i time; Cn: drug concentration in the receiving liquid when the n time taking the sample; M: drug content in the sample.

SMILES: CNC(=O)c1ccc(CCC(=O)NCC(=O)N(C)c2ccc(Cl)c(COc3cccc4c3nc(OC)n4Cc3ccccn3)c2Cl)cc1 [YLB-01, 4-(3-2-((2,4-dichloro-3-((2-methoxy-1-(pyridine-2ylmethyl)-1H-benzo[d]imidazol-4-yloxy)methyl)phenyl)(methyl)amino-2-oxoethylamino)-3-oxopropyl)-N-methylbenzamid]
- PGD2 [1]: undetectable
- PGE2 [1]: 34.64 ± 12.27%
- PGF-2a [1]: 5.68 ± 2.08%
- Cumulative Penetration Rate of 9 Hours ([2]; gels, 0.03% YLB-01, 4% propylene glycol, 0% azone): 2.29%
- Cumulative Penetration Rate of 9 Hours ([2]; gels, 0.3% YLB-01, 4% propylene glycol, 0% azone): 4.43%
- Cumulative Penetration Rate of 9 Hours ([2]; gels, 3% YLB-01, 4% propylene glycol, 0% azone): 13.57%
- Cumulative Penetration Rate of 9 Hours ([2]; liniments, 0.03% YLB-01, 2% propylene glycol + 2% azone): 4.23%
- Cumulative Penetration Rate of 9 Hours ([2]; liniments, 0.3% YLB-01, 2% propylene glycol + 2% azone): 10.96%
- Cumulative Penetration Rate of 9 Hours ([2]; liniments, 3% YLB-01, 2% propylene glycol + 2% azone): 12.17%
- Cumulative Penetration Rate of 9 Hours ([2]; ointments, 0.03% YLB-01, 5% propylene glycol + 2% azone): 2.08%
- Cumulative Penetration Rate of 9 Hours ([2]; ointments, 0.3% YLB-01, 5% propylene glycol + 2% azone): 1.12%
- Cumulative Penetration Rate of 9 Hours ([2]; ointments, 3% YLB-01, 5% propylene glycol + 2% azone): 0.73%
